Reference: the supplement of paper PMC10307832

Tests used:
Assay in all cases: relative viability (nuclei count vs DMSO), 5 days (fraction); higher = more cells survive
[1] = compound: CCOC(=O)CCNc1cc(N2CCc3ccccc3CC2)nc(-c2ccccn2)n1 [GSK-J4] + CCNC(=O)c1noc(-c2cc(C(C)C)c(O)cc2O)c1-c1ccc(CN2CCOCC2)cc1 [Luminespib] (partner 0.01 µM)
In short: (§1)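 One day after seeding in 1536-well plates, lung cancer cell lines were dosed by pin tool. Dosing was either single-drug or a fixed anchor-drug dose plus five library-drug doses (not always all listed) in √10 steps. After 5 days, nuclei were stained in one fix-and-stain step and counted on 4× images, and relative viability is the nuclei count of treated wells over that of vehicle wells, given as the median of duplicate plates.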

[2] = compound: CN1CCC(CC1)OC2=CC(=C(C=C2)NC3=NC=C4C(=N3)N(C(=O)N4C)C5CCCC5)OC [AZ3146] + CC(=O)Nc1cccc(-n2c(=O)n(C3CC3)c(=O)c3c(Nc4ccc(I)cc4F)n(C)c(=O)c(C)c32)c1 [Trametinib] (partner 0.02 µM)
In short: as §1

[3] = compound: CN1CCC(CC1)OC2=CC(=C(C=C2)NC3=NC=C4C(=N3)N(C(=O)N4C)C5CCCC5)OC [AZ3146] + C[C@]1(O)C[C@@H](c2nc(-c3ccc4ccc(-c5ccccc5)nc4c3)c3c(N)nccn32)C1 [Linsitinib] (partner 1 µM)
In short: as §1

[4] = compound: CN1CCC(CC1)OC2=CC(=C(C=C2)NC3=NC=C4C(=N3)N(C(=O)N4C)C5CCCC5)OC [AZ3146] + Nc1ncn([C@H]2C[C@H](O)[C@@H](CO)O2)c(=O)n1 [Decitabine] (partner 2 µM)
In short: as §1

Cell Line	relative viability ([1]; first compound 0.5 µM)	relative viability ([1]; first compound 1.581 µM)	relative viability ([1]; first compound 15.81 µM)	relative viability ([1]; first compound 50 µM)	relative viability ([2]; first compound 0.08 µM)	relative viability ([2]; first compound 0.253 µM)	relative viability ([2]; first compound 0.8 µM)	relative viability ([2]; first compound 2.53 µM)	relative viability ([2]; first compound 8 µM)	relative viability ([3]; first compound 0.08 µM)	relative viability ([3]; first compound 0.253 µM)	relative viability ([3]; first compound 0.8 µM)	relative viability ([3]; first compound 2.53 µM)	relative viability ([3]; first compound 8 µM)	relative viability ([4]; first compound 0.08 µM)	relative viability ([4]; first compound 0.253 µM)	relative viability ([4]; first compound 0.8 µM)	relative viability ([4]; first compound 2.53 µM)	relative viability ([4]; first compound 8 µM)	relative viability ([1]; first compound 5 µM)
NCI-H838	0.299	0.335	0.247	0.168	0.553	0.467	0.462	0.481	0.227	0.921	1	0.97	0.971	0.79	0.46	0.474	0.422	0.501	0.281	–
NCI-H1355	0.691	0.701	0.513	0.651	0.441	0.429	0.435	0.435	0.439	0.774	0.854	0.825	0.864	0.885	0.336	0.32	0.362	0.423	0.361	0.77
NCI-H1395	0.529	0.621	0.723	0.536	0.999	1.08	–	1.07	1.09	0.986	1.1	1.28	1.37	1.05	0.642	0.746	–	0.864	0.849	0.62
NCI-H1437	1.05	1.1	1.03	0.739	0.445	0.48	0.511	0.489	0.361	0.967	0.996	1.01	1.04	1.03	0.536	0.533	0.598	0.531	0.481	1.1
NCI-H1651	0.703	0.728	0.701	0.625	0.736	0.779	0.833	0.789	0.797	0.886	1.07	1.04	0.989	1	0.532	0.634	0.549	0.543	0.617	0.727
NCI-H1666	1.02	0.925	1.03	0.735	0.848	0.875	0.851	0.887	0.761	0.738	0.862	0.906	0.829	0.858	0.666	0.706	0.679	0.673	0.711	1.11
NCI-H1734	0.209	0.167	0.186	0.155	0.641	0.663	0.594	0.662	0.62	0.787	0.871	0.965	0.877	0.934	0.4	0.499	0.429	0.5	0.484	0.181
NCI-H1755	0.355	0.387	0.326	0.383	0.674	0.787	0.714	0.783	0.785	0.885	1.02	0.932	1.01	0.972	0.68	0.716	0.739	0.842	0.839	0.504
NCI-H1792	0.46	–	0.358	0.454	0.37	0.38	0.415	0.421	0.516	0.436	0.551	0.523	0.6	0.65	0.399	0.503	0.54	0.641	0.669	0.533
NCI-H1793	0.261	0.192	0.258	0.134	0.374	0.419	0.393	0.515	0.418	0.841	0.921	0.638	0.813	1.02	0.252	0.523	0.456	0.283	0.488	0.18
NCI-H1915	0.824	0.791	0.657	0.613	0.312	0.303	0.294	0.306	0.319	1.09	1.12	1.09	1.1	1.11	0.267	0.27	0.266	0.251	0.264	–
NCI-H1944	0.762	0.711	0.649	0.799	0.375	0.424	0.435	0.45	0.459	–	1.11	1.14	1.21	1.35	0.329	0.44	0.429	0.445	0.468	0.851
NCI-H1975	0.261	0.202	0.178	0.284	0.315	0.351	0.29	0.348	0.306	0.988	0.986	1	0.978	0.352	0.415	0.601	0.367	0.379	0.415	–
NCI-H1993	0.885	0.803	0.525	0.494	0.562	0.508	0.472	0.519	0.469	0.689	0.731	0.782	0.789	0.704	0.699	0.54	0.561	0.588	0.594	0.779
NCI-H2009	1.05	0.918	0.938	0.407	0.286	0.301	0.271	0.273	0.238	1.09	1.22	1.22	1.27	1.16	0.372	0.333	0.41	0.417	0.328	–
NCI-H2023	0.73	0.685	0.76	0.472	0.55	0.473	0.616	0.538	0.442	0.743	0.694	0.612	0.677	0.546	0.235	0.203	0.246	0.227	0.13	0.862
